Calls of active or inactive are those of the source. The calls are words filed in the database; no cut-off is given here.
Assays:
[1] = tested on: A704; experiment: Antiproliferative activity against human A704 cells assessed as of viable cell signal at minimum maximum cell growth incubated for 72 hrs by celltiter-glo assay relative to control; assay type: functional
[2] = tested on: COLO 205; experiment: Antitumor activity against human COLO 205 cells xenografted in ip dosed Nude mouse assessed as increase in pIk1 level measured at 24 to 48 hrs by […]; assay type: functional, organism-based; conditions: dose 50-100 mg/kg, time 24-48 hrs
[3] = tested on: A498; experiment: Antiproliferative activity against human A498 cells assessed as growth inhibition incubated for 72 hrs by celltiter-glo assay; assay type: functional
[4] = tested on: OVCAR-3; experiment: Antiproliferative activity against human OVCAR-3 cells assessed as viable cell signal at maximum growth inhibition incubated for 72 hrs by celltiter-glo assay relative to control; assay type: functional
[5] = tested on: U2OS; experiment: Antiproliferative activity against human U2OS cells assessed as of viable cell signal at minimum maximum cell growth incubated for 72 hrs by celltiter-glo assay relative to control; assay type: functional
[6] = tested on: HL-60; experiment: Antiproliferative activity against human HL-60 cells assessed as viable cell signal at maximum growth inhibition incubated for 72 hrs by celltiter-glo assay relative to control; assay type: functional
[7] = tested on: HeLa; experiment: Antiproliferative activity against human HeLa cells assessed as growth inhibition incubated for 72 hrs by celltiter-glo assay; assay type: functional
[8] = tested on: Hep 3B2; experiment: Antiproliferative activity against human Hep3B cells assessed as of viable cell signal at minimum maximum cell growth incubated for 72 hrs by celltiter-glo assay relative to control; assay type: functional
[9] = biological target: Platelet-derived growth factor receptor alpha (Homo sapiens) (UniProt P16234); experiment: Inhibition of N-terminal his6-tagged recombinant human PDGFRalpha (550 to end residues) expressed in baculovirus Sf21 insect cells at 10 uM relative to control
[10] = tested on: SCLC; experiment: Antiproliferative activity against human SCLC cells assessed as viable cell signal at maximum growth inhibition incubated for 72 hrs by celltiter-glo assay relative to control; assay type: functional
[11] = tested on: SK-OV-3; experiment: Antiproliferative activity against human SK-OV-3 cells assessed as viable cell signal at maximum growth inhibition incubated for 72 hrs by celltiter-glo assay relative to control; assay type: functional
[12] = tested on: SCLC; experiment: Antiproliferative activity against human SCLC cells assessed as growth inhibition incubated for 72 hrs by celltiter-glo assay; assay type: functional
[13] = tested on: SAOS-2; experiment: Antiproliferative activity against human SAOS-2 cells assessed as of viable cell signal at minimum maximum cell growth incubated for 72 hrs by celltiter-glo assay relative to control; assay type: functional
[14] = tested on: A549; experiment: Antiproliferative activity against human A549 cells assessed as of viable cell signal at minimum maximum cell growth incubated for 72 hrs by celltiter-glo assay relative to control; assay type: functional
[15] = tested on: HN5; experiment: Antiproliferative activity against human HN5 cells assessed as of viable cell signal at minimum maximum cell growth incubated for 72 hrs by celltiter-glo assay relative to control; assay type: functional
[16] = tested on: ZR-75-1; experiment: Antiproliferative activity against human ZR-75-1 cells assessed as growth inhibition at 10 to 250 nmol/L incubated for 72 hrs by celltiter-glo assay; assay type: functional, cell-based; conditions: dose 10-250 nmol/L
[17] = tested on: SAOS-2; experiment: Antiproliferative activity against human SAOS-2 cells assessed as viable cell signal at maximum growth inhibition incubated for 72 hrs by celltiter-glo assay relative to control; assay type: functional
[18] = Antiproliferative activity against human PL45 cells assessed as viable cell signal at maximum growth inhibition incubated for 72 hrs by celltiter-glo assay relative to control; assay type: functional
[19] = tested on: OVCAR-3; experiment: Antiproliferative activity against human OVCAR-3 cells assessed as of viable cell signal at minimum maximum cell growth incubated for 72 hrs by celltiter-glo assay relative to control; assay type: functional
[20] = tested on: A549; experiment: Antiproliferative activity against human A549 cells assessed as viable cell signal at maximum growth inhibition incubated for 72 hrs by celltiter-glo assay relative to control; assay type: functional
[21] = biological target: Serine/threonine-protein kinase pim-1 (Homo sapiens) (UniProt P11309); experiment: Inhibition of full length N-terminal GST-tagged recombinant human PIM1 expressed in Escherichia coli at 10 uM relative to control
[22] = tested on: U-87 MG; experiment: Antiproliferative activity against human U-87 MG cells assessed as viable cell signal at maximum growth inhibition incubated for 72 hrs by celltiter-glo assay relative to control; assay type: functional, U-87MG ATCC
[23] = tested on: RKO; experiment: Antiproliferative activity against human RKO cells assessed as of viable cell signal at minimum maximum cell growth incubated for 72 hrs by celltiter-glo assay relative to control; assay type: functional
[24] = tested on: COLO 205; experiment: Antiproliferative activity against human COLO 205 cells assessed as viable cell signal at maximum growth inhibition incubated for 72 hrs by celltiter-glo assay relative to control; assay type: functional
[25] = tested on: H322; experiment: Antiproliferative activity against human H322 cells assessed as growth inhibition incubated for 72 hrs by celltiter-glo assay; assay type: functional; conditions: NCI-H322
[26] = tested on: OVCAR-3; experiment: Antiproliferative activity against human OVCAR-3 cells assessed as growth inhibition incubated for 72 hrs by celltiter-glo assay; assay type: functional
[27] = tested on: RPMI-8226; experiment: Antiproliferative activity against human RPMI-8226 cells assessed as viable cell signal at maximum growth inhibition incubated for 72 hrs by celltiter-glo assay relative to control; assay type: functional
[28] = biological target: Calcium/calmodulin-dependent protein kinase type II subunit beta (Homo sapiens) (UniProt Q13554); experiment: Inhibition of recombinant human CaMKII-beta at 10 uM relative to control
[29] = tested on: HeLa; experiment: Antiproliferative activity against human HeLa cells assessed as viable cell signal at maximum growth inhibition incubated for 72 hrs by celltiter-glo assay relative to control; assay type: functional
[30] = tested on: COLO 205; experiment: Antitumor activity against human COLO 205 cells xenografted in Nude mouse assessed as increase in pIk1 level at 50 to 100 mg/kg, ip measured at 24 to 48 hrs by immunohistochemistry analysis; assay type: functional, organism-based; conditions: dose 50-100 mg/kg, time 24-48 hrs
[31] = tested on: Raji; experiment: Antiproliferative activity against human Raji cells assessed as of viable cell signal at minimum maximum cell growth incubated for 72 hrs by celltiter-glo assay relative to control; assay type: functional
[32] = tested on: MDA-MB-453; experiment: Antiproliferative activity against human MDA-MB-453 cells assessed as viable cell signal at maximum growth inhibition incubated for 72 hrs by celltiter-glo assay relative to control; assay type: functional
[33] = tested on: HN5; experiment: Antiproliferative activity against human HN5 cells assessed as viable cell signal at maximum growth inhibition incubated for 72 hrs by celltiter-glo assay relative to control; assay type: functional
[34] = tested on: U2OS; experiment: Antiproliferative activity against human U2OS cells assessed as viable cell signal at maximum growth inhibition incubated for 72 hrs by celltiter-glo assay relative to control; assay type: functional
[35] = tested on: DU-145; experiment: Antiproliferative activity against human DU-145 cells assessed as growth inhibition incubated for 72 hrs by celltiter-glo assay; assay type: functional
[36] = tested on: HCC1954; experiment: Antiproliferative activity against human HCC1954 cells assessed as viable cell signal at maximum growth inhibition incubated for 72 hrs by celltiter-glo assay relative to control; assay type: functional
[37] = tested on: MDA-MB-468; experiment: Antiproliferative activity against human MDA-MB-468 cells assessed as growth inhibition incubated for 72 hrs by celltiter-glo assay; assay type: functional
[38] = tested on: SAOS-2; experiment: Antiproliferative activity against human SAOS-2 cells assessed as growth inhibition incubated for 72 hrs by celltiter-glo assay; assay type: functional
[39] = biological target: Cyclin-dependent kinase 1/cyclin B1 (Homo sapiens) (UniProt P06493+P14635); experiment: Inhibition of C-terminal his6-tagged recombinant human CDK1/full length N-terminal GST-tagged recombinant human cyclin B expressed in baculovirus Sf21 insect cells at 10 uM relative to control
[40] = tested on: LNCaP; experiment: Antiproliferative activity against human LNCaP cells assessed as growth inhibition incubated for 72 hrs by celltiter-glo assay; assay type: functional

Sequence of Cyclin-dependent kinase 1/cyclin B1 (Homo sapiens) (P06493 whole entry, looked up): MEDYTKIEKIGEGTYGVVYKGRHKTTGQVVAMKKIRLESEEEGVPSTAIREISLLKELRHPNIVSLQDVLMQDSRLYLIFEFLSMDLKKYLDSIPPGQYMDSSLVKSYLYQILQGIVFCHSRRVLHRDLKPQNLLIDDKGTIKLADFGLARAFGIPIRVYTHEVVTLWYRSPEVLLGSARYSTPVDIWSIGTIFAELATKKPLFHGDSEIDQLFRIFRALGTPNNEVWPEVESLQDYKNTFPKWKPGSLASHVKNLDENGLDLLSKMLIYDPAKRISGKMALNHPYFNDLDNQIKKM
Sequence of Cyclin-dependent kinase 1/cyclin B1 (Homo sapiens) (P14635 whole entry, looked up): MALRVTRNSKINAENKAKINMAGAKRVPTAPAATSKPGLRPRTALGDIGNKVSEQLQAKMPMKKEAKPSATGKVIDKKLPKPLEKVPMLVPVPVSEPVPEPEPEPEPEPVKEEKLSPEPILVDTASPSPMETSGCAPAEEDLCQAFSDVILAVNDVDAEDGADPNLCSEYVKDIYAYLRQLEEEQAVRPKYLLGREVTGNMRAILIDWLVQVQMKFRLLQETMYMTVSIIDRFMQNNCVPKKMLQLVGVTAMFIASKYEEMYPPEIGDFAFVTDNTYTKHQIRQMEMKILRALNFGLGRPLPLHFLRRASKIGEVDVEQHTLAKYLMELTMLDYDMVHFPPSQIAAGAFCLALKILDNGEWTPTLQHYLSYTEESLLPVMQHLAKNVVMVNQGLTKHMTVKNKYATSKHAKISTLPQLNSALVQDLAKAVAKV
Sequence of Serine/threonine-protein kinase pim-1 (Homo sapiens) (P11309 whole entry, looked up): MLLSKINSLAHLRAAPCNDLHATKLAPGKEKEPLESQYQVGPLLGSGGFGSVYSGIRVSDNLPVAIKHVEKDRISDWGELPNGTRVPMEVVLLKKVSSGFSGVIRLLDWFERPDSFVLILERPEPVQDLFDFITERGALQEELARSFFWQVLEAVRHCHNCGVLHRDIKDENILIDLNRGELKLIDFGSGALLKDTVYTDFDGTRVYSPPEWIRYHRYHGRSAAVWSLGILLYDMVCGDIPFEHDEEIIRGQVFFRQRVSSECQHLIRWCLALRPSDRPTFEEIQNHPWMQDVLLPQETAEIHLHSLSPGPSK
Sequence of Calcium/calmodulin-dependent protein kinase type II subunit beta (Homo sapiens) (Q13554 whole entry): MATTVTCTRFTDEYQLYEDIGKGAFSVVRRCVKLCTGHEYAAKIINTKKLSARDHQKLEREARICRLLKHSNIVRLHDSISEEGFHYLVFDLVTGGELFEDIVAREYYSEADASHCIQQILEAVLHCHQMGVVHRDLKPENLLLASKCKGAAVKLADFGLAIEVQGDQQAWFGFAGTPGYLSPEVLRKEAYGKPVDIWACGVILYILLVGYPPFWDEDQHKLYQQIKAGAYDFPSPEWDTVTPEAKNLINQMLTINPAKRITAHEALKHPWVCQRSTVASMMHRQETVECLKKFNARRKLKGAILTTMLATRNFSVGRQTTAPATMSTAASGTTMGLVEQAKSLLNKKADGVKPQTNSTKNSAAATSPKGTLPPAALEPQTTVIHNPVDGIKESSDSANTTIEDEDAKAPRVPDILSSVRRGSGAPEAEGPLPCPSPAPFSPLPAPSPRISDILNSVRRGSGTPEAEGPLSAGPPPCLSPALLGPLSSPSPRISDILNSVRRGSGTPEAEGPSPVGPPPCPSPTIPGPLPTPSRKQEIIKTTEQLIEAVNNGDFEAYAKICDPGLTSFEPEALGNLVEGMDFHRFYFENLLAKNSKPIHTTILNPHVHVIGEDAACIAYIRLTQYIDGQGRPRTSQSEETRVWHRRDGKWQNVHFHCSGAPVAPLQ
Sequence of Platelet-derived growth factor receptor alpha (Homo sapiens) (P16234 whole entry): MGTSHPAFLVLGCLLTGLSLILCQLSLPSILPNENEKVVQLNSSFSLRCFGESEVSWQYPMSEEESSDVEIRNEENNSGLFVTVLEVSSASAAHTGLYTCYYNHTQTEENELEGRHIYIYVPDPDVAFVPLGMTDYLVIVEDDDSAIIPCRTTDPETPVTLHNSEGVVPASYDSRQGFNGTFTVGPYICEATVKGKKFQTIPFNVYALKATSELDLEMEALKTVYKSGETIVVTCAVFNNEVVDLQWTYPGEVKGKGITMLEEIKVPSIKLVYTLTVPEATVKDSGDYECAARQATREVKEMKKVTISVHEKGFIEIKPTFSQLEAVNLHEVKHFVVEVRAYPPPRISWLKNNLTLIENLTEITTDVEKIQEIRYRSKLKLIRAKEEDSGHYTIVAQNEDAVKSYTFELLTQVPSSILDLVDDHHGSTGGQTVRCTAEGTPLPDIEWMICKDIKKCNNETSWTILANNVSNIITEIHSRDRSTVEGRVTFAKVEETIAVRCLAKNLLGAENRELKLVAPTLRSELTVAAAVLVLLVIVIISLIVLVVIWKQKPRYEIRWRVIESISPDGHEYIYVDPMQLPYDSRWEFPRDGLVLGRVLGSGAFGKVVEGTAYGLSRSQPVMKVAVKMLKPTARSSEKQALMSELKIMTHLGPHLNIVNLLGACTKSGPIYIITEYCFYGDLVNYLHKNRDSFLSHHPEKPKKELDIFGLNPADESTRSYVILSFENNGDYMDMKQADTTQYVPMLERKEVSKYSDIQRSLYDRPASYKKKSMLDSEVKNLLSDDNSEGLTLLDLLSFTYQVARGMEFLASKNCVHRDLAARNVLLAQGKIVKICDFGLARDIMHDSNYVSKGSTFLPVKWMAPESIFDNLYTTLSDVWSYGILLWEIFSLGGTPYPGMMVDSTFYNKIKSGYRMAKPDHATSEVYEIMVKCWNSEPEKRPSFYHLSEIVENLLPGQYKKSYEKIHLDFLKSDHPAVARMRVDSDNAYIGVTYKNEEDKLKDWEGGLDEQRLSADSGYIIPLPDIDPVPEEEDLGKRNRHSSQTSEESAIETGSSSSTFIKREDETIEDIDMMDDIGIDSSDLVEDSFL

With `C[C@@H](Oc1cc(-n2cnc3ccc(CN4CCN(C)CC4)cc32)sc1C(N)=O)c1ccccc1C(F)(F)F` [GSK-461364] the Emin [1] was 3.2%, the Activity [2] was “Dose-Dependent Effect” and the GI50 [3] was 0.0404 µM. The Emax [4] was 496%, the Emin [5] was 170.6% and the Emax [6] was 191%. It also gave a GI50 [7] of 0.0218 µM, an Emin [8] of 132.1% and an inhibition [9] of 72%. It also gave an Emax [10] of 834%, an Emax [11] of 345% and a GI50 [12] of 0.0174 µM. For the same molecule, the Emin [13] was 83.5%, the Emin [14] was 124.1% and the Emin [15] was 39.8%. For the same molecule, the Activity [16] was “inactive”, the Emax [17] was 403% and the Emax [18] was 267%. It also gave an Emin [19] of 164%, an Emax [20] of 632% and an inhibition [21] of 90%. It also gave an Emax [22] of 632%, an Emin [23] of 218% and an Emax [24] of 616%. It also gave a GI50 [25] of 0.0203 µM, a GI50 [26] of 0.0129 µM and an Emax [27] of 515%. For the same molecule, the inhibition [28] was 56%, the Emax [29] was 406% and the Activity [30] was “Active”. It also gave an Emin [31] of 5.1%, an Emax [32] of 489% and an Emax [33] of 812%. For the same molecule, the Emax [34] was 771%, the GI50 [35] was 0.0242 µM and the Emax [36] was 280%. The GI50 [37] was 0.00635 µM, the GI50 [38] was 0.0142 µM and the inhibition [39] was 66%. It also gave a GI50 [40] of 0.0154 µM.

Source: ChEMBL document CHEMBL5705887, “Distinct concentration-dependent effects of the polo-like kinase 1-specific inhibitor GSK461364A, including differential effect on apoptosis” (Cancer Res, 2009)
